target: T1, human TREM2 (Homo sapiens, UniProt Q9NZC2); test: TREM2 agonist potency by cellular phosphorylation of Syk (AlphaLisa) in HEK293T-hTREM2 cells; format: cell-based; details: HEK293 cells expressing human TREM2 and DAP12, Table D
T1 construct: expressed in transfected cells; host or cells: HEK293T
In short: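 Agonist EC50 from a variable-slope four-parameter fit of % activation, based on AlphaLisa phospho-Syk levels in lysates. Cells: HEK293T-hTREM2 (with DAP12), treated 45 min at room temperature with compound in assay buffer.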

T1 sequence (Q9NZC2 19-230): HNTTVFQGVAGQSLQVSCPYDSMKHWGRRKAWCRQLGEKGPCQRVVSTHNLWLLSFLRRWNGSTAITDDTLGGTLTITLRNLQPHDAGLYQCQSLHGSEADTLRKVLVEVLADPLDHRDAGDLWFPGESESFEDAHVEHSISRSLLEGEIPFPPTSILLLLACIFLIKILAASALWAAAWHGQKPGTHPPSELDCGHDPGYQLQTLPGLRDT
T1 sequence (O43914 22-113 partner): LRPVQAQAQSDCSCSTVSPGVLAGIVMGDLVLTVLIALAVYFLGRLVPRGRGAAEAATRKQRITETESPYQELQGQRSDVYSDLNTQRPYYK

Question: Which EC50 does the source give for `[2H]C1([2H])C[C@@H](c2nc(-c3ccc(F)cc3F)c3nc(C)c(C)nc3n2)C[C@@H](c2cnn(C3CC3)c2)O1` (single isomer, unassigned) [Example 170] here?
Answer: < 50 nM

Question: How did the EC50 turn out when `Cc1cc([C@H]2C[C@@H](c3nc(-c4ccc(Cl)c(F)c4F)c4ncc(C)nc4n3)CCO2)ccn1` (racemic) [Example 89, 4-(4-chloro-2,3-difluorophenyl)-7-methyl-2-(2-(2-methylpyridin-4-yl)tetrahydro-2H-pyran-4-yl)pteridine] was run?
Answer: < 50 nM

Question: With `[2H]C1([2H])C[C@@H](c2nc(-c3ccc(Cl)cc3F)c3nc(C)c(C)nc3n2)C[C@@H](c2cnn(C3CC3)c2)O1` [Example 189, 4-(4-chloro-2-fluorophenyl)-2-((2S,4R)-2-(1-cyclopropyl-1H-pyrazol-4-yl)tetrahydro-2H-pyran-4-yl-6,6-d2)-6,7-dimethylpteridine] as the compound, how does the EC50 read?
Answer: 50 to 500 nM

Question: Which EC50 does the source give for `[2H]C1([2H])C[C@H](c2nc(-c3ccc(Cl)cc3F)c3nc(C)c(C)nc3n2)C[C@]([2H])(c2cnn(C3CC3)c2)O1` [Example 192, 4-(4-chloro-2-fluorophenyl)-2-((2R,4S)-2-(1-cyclopropyl-1H-pyrazol-4-yl)tetrahydro-2H-pyran-4-yl-2,6,6-d3)-6,7-dimethylpteridine] here?
Answer: < 50 nM

Question: Which EC50 does the source give for `COc1cccc([C@H]2C[C@@H](c3nc(-c4ccc(F)cc4F)c4nc(C)c(C)nc4n3)CCO2)n1` [Example 165, 4-(2,4-difluorophenyl)-2-((2R,4S)-2-(6-methoxypyridin-2-yl)tetrahydro-2H-pyran-4-yl)-6,7-dimethylpteridine] here?
Answer: 50 to 500 nM

Question: Which EC50 does the source give for `Cc1nc2nc([C@@H]3CCO[C@H](c4cnn(C5CC5)c4)C3)nc(-c3ccc(C(F)(F)F)cc3)c2nc1C` [Example 138, 2-((2S,4R)-2-(1-cyclopropyl-1H-pyrazol-4-yl)tetrahydro-2H-pyran-4-yl)-6,7-dimethyl-4-(4-(trifluoromethyl)phenyl)pteridine] here?
Answer: 50 to 500 nM

Question: How did the EC50 turn out when `Cc1ccc2c(-c3cc(F)c(Cl)cc3F)nc([C@H]3CCO[C@@H](c4cnn(C5CC5)c4)C3)nc2n1` [Example 219, 4-(4-chloro-2,5-difluorophenyl)-2-((2R,4S)-2-(1-cyclopropyl-1H-pyrazol-4-yl)tetrahydro-2H-pyran-4-yl)-7-methylpyrido[2,3-d]pyrimidine] was run?
Answer: < 50 nM

Question: `Cc1nc2cc([C@@H]3CCO[C@@H](c4cnn(C5CC5)c4)C3)cc(-c3ccc(Cl)cc3F)c2nc1C` [Example 230, 5-(4-chloro-2-fluorophenyl)-7-((2R,4R)-2-(1-cyclopropyl-1H-pyrazol-4-yl)tetrahydro-2H-pyran-4-yl)-2,3-dimethylquinoxaline] was tested. Which EC50 did it give?
Answer: 3000 to 100000 nM

Question: For `Cc1nc2cc([C@H]3CCO[C@@H](c4cnn(C5CC5)c4)C3)cc(-c3ccc(F)cc3Cl)c2nc1C` [Example 229, 5-(2-chloro-4-fluorophenyl)-7-((2R,4S)-2-(1-cyclopropyl-1H-pyrazol-4-yl)tetrahydro-2H-pyran-4-yl)-2,3-dimethylquinoxaline], which EC50 is on record?
Answer: 50 to 500 nM

Question: Which EC50 does the source give for `COc1ncccc1[C@@H]1C[C@H](c2nc(C34CC(C(F)(F)F)(C3)C4)c3nc(C)c(C)nc3n2)CCO1` [Example 143, 2-((2S,4R)-2-(2-methoxypyridin-3-yl)tetrahydro-2H-pyran-4-yl)-6,7-dimethyl-4-(3-(trifluoromethyl)bicyclo[1.1.1]pentan-1-yl)pteridine] here?
Answer: 500 to 3000 nM

Question: With `Cc1cnc2c(-c3ccc(F)cc3F)nc(N3C[C@@H](c4cnn(C5CC5)c4)O[C@@H](C)C3)nc2n1` [Example 114, (2R,6S)-2-(1-cyclopropyl-1H-pyrazol-4-yl)-4-(4-(2,4-difluorophenyl)-7-methylpteridin-2-yl)-6-methylmorpholine] as the compound, how does the EC50 read?
Answer: 50 to 500 nM

Question: How did the EC50 turn out when `Fc1ccc(-c2nc([C@H]3CCO[C@@H](c4cnn(C5CC5)c4)C3)cc3nc4c(nc23)COC4)c(F)c1` [Example 238, 7-((2R,4S)-2-(1-cyclopropyl-1H-pyrazol-4-yl)tetrahydro-2H-pyran-4-yl)-5-(2,4-difluorophenyl)-1,3-dihydrofuro[3,4-b]pyrido[3,4-e]pyrazine] was run?
Answer: 50 to 500 nM

Question: How did the EC50 turn out when `Cc1cc([C@@H]2C[C@H](c3cc4nc(C)c(C)cc4c(-c4ccc(F)cc4F)n3)CCO2)ccn1` [Example 226, 5-(2,4-difluorophenyl)-2,3-dimethyl-7-((2S,4R)-2-(2-methylpyridin-4-yl)tetrahydro-2H-pyran-4-yl)-1,6-naphthyridine] was run?
Answer: 500 to 3000 nM

Question: How did the EC50 turn out when `Cc1nc2nc([C@H]3CCO[C@@H](c4cnn(C5CC5)n4)C3)nc(-c3ccc(F)cc3F)c2nc1C` [Example 155, 2-((2R,4S)-2-(2-cyclopropyl-2H-1,2,3-triazol-4-yl)tetrahydro-2H-pyran-4-yl)-4-(2,4-difluorophenyl)-6,7-dimethylpteridine] was run?
Answer: 50 to 500 nM

Question: `Cc1nc2nc(-c3ccc(Cl)cc3F)cc(C3CCO[C@@H](c4cnn(C5CC5)c4)C3)c2nc1C` (stereo partly drawn) [Example 235, 6-(4-chloro-2-fluorophenyl)-8-((2R)-2-(1-cyclopropyl-1H-pyrazol-4-yl)tetrahydro-2H-pyran-4-yl)-2,3-dimethylpyrido[2,3-b]pyrazine] was tested. Which EC50 did it give?
Answer: < 50 nM

Question: For `COc1ccc([C@H]2C[C@@H](c3nc(C45CC(C(F)(F)F)(C4)C5)c4nc(C)c(C)nc4n3)CCO2)cn1` [Example 141, 2-((2R,4S)-2-(6-methoxypyridin-3-yl)tetrahydro-2H-pyran-4-yl)-6,7-dimethyl-4-(3-(trifluoromethyl)bicyclo[1.1.1]pentan-1-yl)pteridine], which EC50 is on record?
Answer: < 50 nM

Question: For `Cc1nc2nc(C3CCOC(c4cc(C5CC5)n[nH]4)C3)nc(-c3ccc(F)cc3F)c2nc1C` (stereo not drawn) [Example 166, 2-(2-(3-cyclopropyl-1H-pyrazol-5-yl)tetrahydro-2H-pyran-4-yl)-4-(2,4-difluorophenyl)-6,7-dimethylpteridine], which EC50 is on record?
Answer: 50 to 500 nM

Question: How did the EC50 turn out when `Cc1nc2nc([C@@H]3CCO[C@H](c4cnn(C5CC(F)C5)c4)C3)nc(C34CC(C(F)(F)F)(C3)C4)c2nc1C` (stereo in doubt) [Example 134, 2-((2S,4R)-2-(1-(3-fluorocyclobutyl)-1H-pyrazol-4-yl)tetrahydro-2H-pyran-4-yl)-6,7-dimethyl-4-(3-(trifluoromethyl)bicyclo[1.1.1]pentan-1-yl)pteridine] was run?
Answer: < 50 nM

Question: With `COc1ncccc1[C@@H]1C[C@H](c2nc(-c3ccc(F)cc3F)c3nc(C)c(C)nc3n2)CCO1` [Example 160, 4-(2,4-difluorophenyl)-2-((2S,4R)-2-(2-methoxypyridin-3-yl)tetrahydro-2H-pyran-4-yl)-6,7-dimethylpteridine] as the compound, how does the EC50 read?
Answer: 50 to 500 nM

same assay, conditions: HEK293 cells expressing human TREM2 and DAP12, Table D-2

Question: With `Cc1nc2nc([C@H]3CCO[C@@H](c4cnc(C5CC5)o4)C3)nc(-c3ccc(F)cc3F)c2nc1C` [Example I-1699, 2-cyclopropyl-5-[(2R,4S)-4-[4-(2,4-difluorophenyl)-6,7-dimethyl-pteridin-2-yl]tetrahydropyran-2-yl]oxazole] as the compound, how does the EC50 read?
Answer: 50 to 500 nM

Question: Which EC50 does the source give for `COc1nc2c(-c3ccc(Cl)cc3F)nc([C@@H]3CCO[C@H](c4cnn(C5CC5)c4)C3)nc2nc1C` (racemic) [Example I-1221, 4-(4-chloro-2-fluoro-phenyl) −6-methoxy-7-methyl-2-[rac-(2S,4R)-2-(1-cyclopropylpyrazol-4-yl)tetrahydropyran-4-yl]pteridine] here?
Answer: < 50 nM

Question: `Cc1nc2nc(C3CCO[C@@H](c4cnn(C5CC5)c4)C3)nc(-c3cc(C(F)(F)F)c(F)cc3F)c2nc1C` (stereo partly drawn) [Example I-1585, 2-((2R)-2-(1-cyclopropyl-1H-pyrazol-4-yl)tetrahydro-2H-pyran-4-yl)-4-(2,4-difluoro-5-(trifluoromethyl)phenyl)-6,7-dimethylpteridinee] was tested. Which EC50 did it give?
Answer: < 50 nM

Question: `Cc1cc([C@H]2CN(c3nc(-c4ccc(Cl)cc4F)c4nc(C)c(C)nc4n3)CCO2)no1` [Example I-1510, (2R)-4-[4-(4-chloro-2-fluoro-phenyl)-6,7-dimethyl-pteridin-2-yl]-2-(5-methylisoxazol-3-yl)morpholine] was tested. Which EC50 did it give?
Answer: 50 to 500 nM

Question: Which EC50 does the source give for `Cc1nc2nc([C@H]3CCO[C@@H](c4cnn(C5CC5)c4)C3)nc(-c3ccc(C(C)C)cc3F)c2nc1C` [Example I-1192] here?
Answer: 500 to 3000 nM

Question: How did the EC50 turn out when `Cc1nc2nc(-c3ccc(Cl)cc3F)cc(N3C[C@@H](C)O[C@@H](c4cnn(C5CC5)c4)C3)c2nc1C` [Example I-1081, (2S,6R)-4-[6-(4-chloro-2-fluoro-phenyl)-2,3-dimethyl-pyrido[2,3-b]pyrazin-8-yl]-2-(1-cyclopropylpyrazol-4-yl)-6-methyl-morpholine] was run?
Answer: 500 to 3000 nM

Question: `Cc1nc2nc([C@H]3CCO[C@@H](c4cnn(C5CC5)c4)C3)nc(-c3ccc4c(c3)CCC4)c2nc1C` (stereo in doubt) [Example I-1170, 4-indan-5-yl-6,7-dimethyl-2-[(2R,4S)-2-(1-cyclopropylpyrazol-4-yl)tetrahydropyran-4-yl]pteridine] was tested. Which EC50 did it give?
Answer: < 50 nM

Question: With `Cc1nc2nc(N3CCO[C@H](c4cnn5c4CCC5)C3)nc(-c3ccc(F)cc3F)c2nc1C` [Example I-1529, (2R)-4-[4-(2,4-difluorophenyl)-6,7-dimethyl-pteridin-2-yl]-2-(5,6-dihydro-4H-pyrrolo[1,2-b]pyrazol-3-yl)morpholine] as the compound, how does the EC50 read?
Answer: 50 to 500 nM

Question: `Cc1cc2c(C3CCC(C(F)F)CC3)nc(N3C[C@@H](C)O[C@@H](c4cnn(C5CC5)c4)C3)nc2nc1C` (stereo partly drawn) [Example I-1328, (2S,6R)-2-(1-cyclopropylpyrazol-4-yl)-4-[4-[4-(difluoromethyl)cyclohexyl]-6,7-dimethyl-pyrido[2,3-d]pyrimidin-2-yl]-6-methyl-morpholine] was tested. Which EC50 did it give?
Answer: < 50 nM

Question: Which EC50 does the source give for `Cc1nc2nc(N3CCCO[C@H](c4cnn(C5CC5)c4)C3)nc(-c3ccc(F)cc3F)c2nc1C` (stereo in doubt) [Example I-1144, 2-(1-cyclopropyl-1H-pyrazol-4-yl)-4-(4-(2,4-difluorophenyl)-6,7-dimethylpteridin-2-yl)-1,4-oxazepane] here?
Answer: 500 to 3000 nM

Question: With `Cc1nc2nc(N3C[C@@H](C)O[C@@H](c4cnn(C5CC5)c4)C3)nc(-c3ccc(F)cc3F)c2nc1C(F)F` [Example I-1609, (2S,6R)-2-(1-cyclopropylpyrazol-4-yl)-4-[6-(difluoromethyl)-4-(2,4-difluorophenyl)-7-methyl-pteridin-2-yl]-6-methyl-morpholine] as the compound, how does the EC50 read?
Answer: < 50 nM
